Test results: patent US9738902B2, “Modified PYR/PYL receptors activated by ligands” (priority 2013, dated 2017)

Tests used:
Format in all cases: in vivo, Arabidopsis
[1] = test system: PYR1^MANDI expressing transgenic plants (E15, E16, F29, F34); experiment: water loss of detached rosettes; details: 2 μM mandipropamid, 24 hours before detachment
Experimental: As another measure of guard cell physiology, we measured rates of water loss in transgenic and control plants exposed to mock or mandipropamid treatments. It is well known that ABA treatments reduce leaf water loss via guard cell closure. 3 week-old homozygous transgenic plants (E15, E16, F29 and F34) and control wild type plants were treated with 2 μM mandipropamid or mock solutions (with 0.02% Silwet as described above). After 24 hours, whole rosettes were detached and their masses monitored over time. […] These experiments, together with the thermal imaging experiments, indicate that mandipropamid can reduce guard cell aperture and reduce transpiration rates in PYR1^MANDI expressing transgenic plants, just as ABA is well known to do to wild type plants.

[2] = test system: MDP1 and MDP2 genotypes (35S::PYR1^MANDI); experiment: survival after water deprivation and re-watering; details: 1 μM mandipropamid, 11 days water deprivation
Experimental: Examples 6 and 8 disclosed that mandipropamid treatments of PYR1^MANDI transgenic plants are sufficient to close guard cells (as indicated by thermal imaging) and confer drought tolerance. To investigate these responses further we performed three additional experiments using wild type Columbia, PYR1-OX and the MDP1 and MDP2 genotypes. Each experiment was conducted independently of the other at different times over the course of 8 months. Each experiment characterized 3 pots of each genotype (each pot contained 4 plants). After 2 weeks (exp. 1) or 3 weeks (Experiments 2 and 3) watering was ceased and the plants were treated with a mock or 1 μM mandipropamid solution made in water containing 0.02% Silwet L-77. These treatments were repeated every 4 (Experiment 1) or 3 days (Experiments 2 and 3). […] After 10 to 11 days of water deprivation the plants were re-watered to assess survival rates after extreme water deprivation. […] Inset in each image are the survival counts from Experiment 1 (upper numbers) and Experiments 2 and 3 (lower numbers). The survival rates have been separated because the experimental protocol for Experiment 1 differed from Experiments 2 and 3.
Plants were grown for ˜4 weeks until initial floral meristems became obvious, after which watering was ceased and the plants were treated with either a mock or 1 μM mandipropamid solution. […]

wild type = experiment: root growth inhibition assay; details: 72 hours after transfer
Text: (§1) Given the relatively high mandipropamid sensitivity of the MDP1 and MDP2 transgenic lines, these lines were subjected to further physiological characterization. One of ABA's physiological effects is to inhibit root growth. Mandipropamid should therefore inhibit root growth in the MDP1 and MDP2 transgenic lines, but not wild type, if it is successfully activating this ABA response. To test this, seeds of the wild type, PYR1-OX, MDP1 and MDP2 genotypes were surface sterilized in bleach and plated on to 0.7% agar petri plates containing ½ MS salts and 0.5% sucrose. After 4 days of stratification at 4° C., the plates were transferred to a growth chamber operating on a 16-hour day length cycle and allowed to germinate for 24 hours and then transferred to petri plates (0.7% agar containing ½ MS salts and 0.5% sucrose) supplemented with differing concentrations of mandipropamid. These plates were then grown vertically in a growth chamber operating on a 16-hour day length cycle. The amount of root growth after transfer was measured 72-hours later after transfer.

PYR1-OX = experiment: root growth inhibition assay; details: 72 hours after transfer
Text: as §1

[3] = test system: MDP1 and MDP2 transgenic genotypes; experiment: root growth inhibition assay; details: MDP1 and MDP2, 72 hours after transfer
Text: as §1

[4] = test system: RBCS::PYR1^MANDI transgenic seeds; experiment: seed germination on mandipropamid medium; details: 1 μM mandipropamid
Text: We generated a series of transgenic plants expressing PYR1^MANDI under the control of either the cauliflower mosaic virus 35S or Arabidopsis Rubisco small subunit 3B promoters (RBCS). These were generated for the purpose of examining the physiological efficacy of the PYR1^MANDI-mandipropamid system for regulating ABA responses in planta. The PYR1^MANDI coding sequence was PCR amplified from pBD-PYR1^MANDI template and cloned into the plant transformation vector pEGAD under control of the 35S promoter. For the RBCS driven construct, the 35S promoter in pEGAD was replaced with the RBCS promoter, which was amplified from Arabidopsis genomic DNA by PCR; the pEGAD vector contains a glufosinate resistance gene and allows selection of transgenics in soil using commercially available formulations of glufosinate. These two constructs, p35S::PYR1^MANDI and pRBCS::PYR1^MANDI, were introduced into Agrobacterium tumefacians GV3101 and then used to transform Arabidopsis using the floral dip method (Clough and Bent, 1998) and the resultant seed germinated in soil and treated with glufosinate to identify transformed plants. Seed from approximately 15-16 transgenic plants were harvested individually and then characterized. It is well known that ABA inhibits seed germination. […]

[5] = test system: PYR1^MANDI transgenic plants (E15, E16, F29, F34); experiment: progressive water loss regime (drought); details: 2 μM mandipropamid, repeated 4 days later; day 11
Experimental: Treatment of plants with ABA delays water loss and additionally improves the ability of plants to recover from drought. We therefore examined the behavior of wild type, 35S::GFP-PYR and 4 homozygous PYR1^MANDI expressing transgenic plants (E15, E16, F29 and F34) during a progressive water loss regime. […] Plants were grown for three weeks in pots containing the same mass of soil and receiving the same amount of water at each watering. At three weeks after germination, regular watering of the plants was ceased and plants were treated with mock or 2 μM mandipropamid. These treatments were repeated 4 days later. Plants were photographed at 1, 10 and 11 days after initiation of water deprivation. As is evident from FIG. 6, by day 10 mock treated plants display evidence of water stress as indicated by collapsed leaves, by day 11 all mock treated plants have experienced severe desiccation. […] This is also observed for wild type and 35S::GFP-PYR plants treated with mandipropamid at day 10. […] This is in contrast to wild type and 35S::GFP-PYR1 control plants treated with mandipropamid and all mock treated lines. Thus, mandipropamid is able to improve drought stress tolerance in PYR1^MANDI expressing transgenic plants. The beneficial effects of mandipropamid are restricted to PYR1^MANDI expressing transgenic plants.

## C#CCOc1ccc(CCNC(=O)C(OCC#C)c2ccc(Cl)cc2)cc1OC (stereo not shown) [Mandipropamid, mandipropamid]
[1]
  water loss of detached rosettes: lower water loss
[2]
  survival rates after water deprivation and re-watering, relative to wild type and PYR1-OX controls: greatly improved
Wild type
  root growth: negligible inhibition
PYR1-OX
  root growth: negligible inhibition
[3]
  root growth: inhibited
[4]
  transgenic plants whose germination was inhibited by mandipropamid: 7 of the 16
[5]
  desiccation during water deprivation: not desiccated
